{"source": "patent EP0120359A1", "about": "“Tetrahydrothiophenone derivative active in respiratory system affections” (YASON S.r.l, priority 1983, dated 1984)", "key": {"rabbit": {"tested_on": "rabbit", "test": "Antitussive activity, citric acid induced cough", "assay_type": "in vivo", "description": "The antitussive activity of YS-869 was evalued by the citric acid test in the rabbit (Boura et al., Prog. Brit. Pharmac. Soc. Communications, April 1970), in comparison with codeine.\nSuch method consists in counting the coughs stro kes caused in the animal by the nebulization of a citric acid solution."}, "Sprague-Dawley rats": {"tested_on": "Sprague-Dawley rats", "test": "Bronchosecretogogue activity, Mawatari test", "assay_type": "in vivo", "details": "rat", "description": "The bronchosecretogogue activity of YS-869 was evalued by the test of Mawatari in Sprague-Dawley rats (Mawatari H. \"Experimental Studies on the expectorant action of several drugs\" - Kagoshima Daiga ken Igaken Zasshi. 27, 561, 1976), in comparison with known drugs.\nThis method consists in determinating the amount of […] eliminated with the fluid in the respiratory tract."}, "rat paw": {"tested_on": "rat paw", "test": "Antiinflammatory activity, carrageenin oedema in rat paw", "assay_type": "in vivo", "details": "for Paw volume 2 h / Paw volume 4 h / Paw volume 6 h / Paw volume 8 h / Paw volume 24 h / Paw volume Basal: mean ± S.E.; for AREA % M±E.S.: area of the paw volume curve; for AREA Inhibition versus control: oedema inhibiting activity", "experimental": "The antiinflammatory activity of YS-869 in comparison with acetylsalicylic acid was evaluated by the test of oedema induced by carrageening injection in rat paw (Winter, Rissly, Ness.; Proc. Soc. Exp. Biol. Med., Ill, 544-47 - 1962)."}, "[1]": {"test": "Solubility in organic solvents", "details": "common organic solvents"}, "rats": {"tested_on": "rats", "assay_type": "in vivo", "details": "200 mg/kg p.o.", "experimental": "The gastro-injuring activity was determined by administering rats with equimolecular dosages of YS-869 and acetylsalicylic acid (252 mg/kg and 200 mg/kg respectively)."}}, "note": "Like-named read-outs stand apart in the source and are kept apart here."}
{"smiles": "COc1ccc2c3c1O[C@H]1[C@@H](O)C=C[C@H]4[C@@H](C2)N(C)CC[C@@]341", "note": "[CODEINE, codeine]", "values": [{"measurement": "% inhibition versus control", "setting": "rabbit; 25 mg/kg i.p.", "value": 70.4, "unit": "%"}]}
{"smiles": "N[C@@H](CSCC(=O)O)C(=O)O", "note": "[S-CARBOXY-METHYL-CY-STEINE, S-carboxymethyl-cysteine]", "values": [{"measurement": "Fl Na", "setting": "Sprague-Dawley rats; 500 mg/kg i.p.", "value": "0.41 ± 0.036", "unit": "µg/mL"}, {"measurement": "Fl Na % increase versus contr.", "setting": "Sprague-Dawley rats; 500 mg/kg i.p.", "value": 46.4, "unit": "%"}]}
{"smiles": "O=C(NC1CCSC1=O)c1cccs1", "note": "(stereo not drawn) [YS-869, N-(2-thenoyl)-N-(2-keto-2,3,4,5-tetrahydro-thiophene-3-yl)amine]", "values": [{"measurement": "Fl Na", "setting": "Sprague-Dawley rats; 500 mg/kg i.p.", "value": "0.42 ± 0.0450", "unit": "µg/mL"}, {"measurement": "Fl Na % increase versus contr.", "setting": "Sprague-Dawley rats; 500 mg/kg i.p., 500 mg/kg", "value": 50, "unit": "%"}, {"measurement": "% inhibition versus control", "setting": "rabbit; 100 mg/kg i.p.", "value": 21.5, "unit": "%"}, {"measurement": "Paw volume 2 h", "setting": "rat paw; 252 mg/kg p.o.", "value": "48.2 ±1.2", "unit": "ml/10"}, {"measurement": "Paw volume 4 h", "setting": "rat paw; 252 mg/kg p.o.", "value": "54.1 ±2.3", "unit": "ml/10"}, {"measurement": "Paw volume 6 h", "setting": "rat paw; 252 mg/kg p.o.", "value": "52.1 ±2.9", "unit": "ml/10"}, {"measurement": "Paw volume 8 h", "setting": "rat paw; 252 mg/kg p.o.", "value": "51.4 ±2.5", "unit": "ml/10"}, {"measurement": "Paw volume 24 h", "setting": "rat paw; 252 mg/kg p.o.", "value": "41 ±1.4", "unit": "ml/10"}, {"measurement": "AREA % M±E.S.", "setting": "rat paw; 252 mg/kg p.o.", "value": "165.21 ±13.1", "unit": "%"}, {"measurement": "Paw volume Basal", "setting": "rat paw; 252 mg/kg p.o.", "value": "36.8 ±1.0", "unit": "ml/10"}, {"measurement": "AREA Inhibition versus control", "setting": "rat paw; 252 mg/kg p.o.", "value": 20.26, "unit": "%"}, {"measurement": "solubility", "setting": "[1]", "value": "soluble in common organic solvents"}]}
{"smiles": "CC(=O)Oc1ccccc1C(=O)O", "note": "[Acetyl-salicy-lic acid, acetylsalicylic acid]", "values": [{"measurement": "Paw volume 2 h", "setting": "rat paw; 200 mg/kg p.o.", "value": "43.5 ±1.5", "unit": "ml/10"}, {"measurement": "Paw volume 4 h", "setting": "rat paw; 200 mg/kg p.o.", "value": "49.3 ±2.0", "unit": "ml/10"}, {"measurement": "Paw volume 6 h", "setting": "rat paw; 200 mg/kg p.o.", "value": "51.4 ±1.7", "unit": "ml/10"}, {"measurement": "Paw volume 8 h", "setting": "rat paw; 200 mg/kg p.o.", "value": "51.5 ±2.0", "unit": "ml/10"}, {"measurement": "Paw volume 24 h", "setting": "rat paw; 200 mg/kg p.o.", "value": "42.8 ±1.7", "unit": "ml/10"}, {"measurement": "AREA % M±E.S.", "setting": "rat paw; 200 mg/kg p.o.", "value": "151.38 ±13.1", "unit": "%"}, {"measurement": "Paw volume Basal", "setting": "rat paw; 200 mg/kg p.o.", "value": "36.1 ±1.1", "unit": "ml/10"}, {"measurement": "AREA Inhibition versus control", "setting": "rat paw; 200 mg/kg p.o.", "value": 26.94, "unit": "%"}, {"measurement": "ULCERS (gastric ulcers average size)", "setting": "rats", "value": "27.7±6.37", "unit": "mm"}, {"measurement": "ULCERS (gastric ulcers average size)", "setting": "rats; listed as acetylsalicylic acid", "value": 27.7, "unit": "mm"}]}
{"smiles": "Nc1c(Br)cc(Br)cc1CN[C@H]1CC[C@H](O)CC1", "note": "[AMBROXOL, Ambroxol]", "values": [{"measurement": "Fl Na", "setting": "Sprague-Dawley rats; 50 mg/kg i.p.", "value": "0.36 ± 0.037", "unit": "µg/mL"}, {"measurement": "Fl Na % increase versus contr.", "setting": "Sprague-Dawley rats; 50 mg/kg i.p.", "value": 28.6, "unit": "%"}]}
